“Also recorded” adds a separate entry of the source. Where two headings read alike, the source gives them in different places.
What was measured:
[1] = system: Human coronary artery arterial vascular SMCs; settings: for inhibition of PDGF-BB induced SMC proliferation, dose dependence: free Imatinib 0.1, 1, 10 μM, PDGF-BB 10 ng/ml
Method: Human coronary artery arterial vascular SMCs (Cambrex Bio Science Walkersville, Inc) are seeded on 48-well culture plates (FALCON 354506 BIOCOAT CELL WARE Human Fibronectin) at 5×10^3 cells per well (n=6 per group) in SM-BM with 10% FBS. After 24 hours, the cells are starved for 72 hours in serum free medium to obtain quiescent non-dividing cells. After starvation, recombinant PDGF-BB (Sigma) 10 ng/m^1 is added. […] These wells are washed with PBS before PDGF stimulation. Four days later, the cells are fixed with methanol and stained with Diff-Quick staining solution (Baxter). A single observer who is blinded the experimental protocol counted the number of cells/plate under a microscope for quantification of SMC proliferation.

Rat aortic SMCs = settings: for inhibition of PDGF-BB induced SMC migration, dose dependence: free Imatinib 0.1, 1, 10 μM, PDGF-BB 10 ng/ml
Method: Migration of rat aortic SMCs is assessed with a Boyden chamber type cell migration assay kit housing a collagen-precoated polycarbonate membrane with 8.0-μm pores (Chemicon), as we previously described (Ono H, Ichiki T, et al. Arterioscler Thromb Vasc Biol. 2004; 24:1634-9.). SMCs are grown to semiconfluent and then made quiescent in serum free medium for 24 hours before migration. The cells (1×10^5 cells/ml) are added to the upper chamber of the membrane (n=6 per group) and allowed to migrate through the pores. […] These cells are washed with PBS before PDGF stimulation. SMCs are then exposed. to PDGF-BB (10 ng/ml) in the lower chamber for 4 hours, after which non-migrated cells are removed from the upper chamber using a cotton swab. The SMCs that migrate to the lower side of the filter are fixed in methanol, stained with Diff-Quick staining solution (Baxter), and counted under a microscope for quantification of SMC migration.

rabbit vein graft = experiment: Rabbit vein graft failure model (vein autograft implanted into carotid artery); type: in vivo; settings: graft treated for 30 min, Imatinib 10% w/v; 4 weeks
From the text: A rabbit vein autograft is implanted into a carotid artery to prepare a rabbit vein graft failure model. In this model, a lumen stenosis due to neointimal formation develops after 4 weeks.

[2] = listed as non-encapsulated Imatinib
[3] = free Imatinib at 0.1 μM, listed as free Imatinib

## Cc1ccc(NC(=O)c2ccc(CN3CCN(C)CC3)cc2)cc1Nc1nccc(-c2cccnc2)n1 [Imatinib, N-{5-[4-(4-methylpiperazino-methyl)-benzoylamido]-2-methylphenyl}-4-(3-pyridyl)-2-pydmidine-amine]
[1]
  inhibition of PDGF-BB induced SMC proliferation, dose dependence: dose-dependently reduces
[1]; listed as free Imatinib
  inhibition of PDGF-BB induced SMC proliferation, dose dependence: dose-dependent manner
[1]; [2]
  inhibition of PDGF-BB induced SMC proliferation, dose dependence: dose-dependent manner
[1]; free Imatinib at 0.1 μM
  effect on PDGF-induced SMC proliferation: no effect
[1]; [3]
  effect on PDGF-induced SMC proliferation: no effects
[1]; free Imatinib at 10 μM
  effect on PDGF-induced SMC proliferation: normalizes; also recorded: completely abolishes
Rat aortic SMCs
  inhibition of PDGF-BB induced SMC migration, dose dependence: dose-dependent inhibitory effect
Rat aortic SMCs; listed as free Imatinib
  inhibition of PDGF-BB induced SMC migration, dose dependence: dose-dependent manner
Rat aortic SMCs; [2]
  inhibition of PDGF-BB induced SMC migration, dose dependence: dose-dependent manner
Rat aortic SMCs; free Imatinib at 0.1 μM
  effect on PDGF-induced SMC migration: no effect
Rat aortic SMCs; [3]
  effect on PDGF-induced SMC migration: no effects
Rat aortic SMCs; free Imatinib at 10 μM
  effect on PDGF-induced SMC migration: normalizes
Rabbit vein graft
  neointimal formation of vein graft: No suppression
